Test results: patent publication US11008313B2, “Substituted 1-methyl-1,2,3,4-tetrahydroisoquinoline molecules as PCSK9 allosteric binders” (Merck Sharp & Dohme Corp., priority 2016, dated 2021)

Columns and labels:
PCSK9 [1] = biological target: T1, PCSK9 (Homo sapiens, UniProt Q8NBP7); assay: Fluorescence polarization competition binding assay (probe: compound of Example 57); details: 2 μM PCSK9, 50 nM compound of Example 57 as probe, overnight incubation; read-out: FP IC
Procedure: Relative compound affinities were determined using a competition binding assay with a fluorescence polarization format. Solution (49 μL) containing 2 μM PCSK9 and 50 nM compound of Example 57 in 20 mM HEPES (pH 7.5)/150 mM NaCl/1 mM CaCl2/0.005% P-20 was dispensed to wells of a 384-well black non-binding microplate before the addition of 1 μL of test compound or DMSO. After mixing, the plate was centrifuged and sealed for overnight incubation in the dark. The anisotropy signal was read using a fluorescence polarization protocol on a Perkin-Elmer Envision plate reader. The % inhibition was determined relative to the window defined by the DMSO control wells and wells containing 50 nM probe in the absence of PCSK9.

PCSK9 [2] = biological target: T1, PCSK9; assay: Differential scanning calorimetry (DSC) assay, direct binding / thermal stabilization of PCSK9; details: Tm(with compound)−Tm(no compound); 2 μM PCSK9, 300 μM test compound
Procedure: Differential scanning calorimetry (DSC) was used as a biophysical method to confirm direct binding to PCSK9. A solution containing 2 μM PCSK9 with or without 300 μM test compound in 25 mM HEPES (pH 7.5)/150 mM NaCl/1 mM CaCl2/3.75% DMSO was transferred to the sample cell of the DSC instrument, while buffer alone was placed in the reference cell. Both cells were heated at a constant rate (200° C./hr) from 20-80° C. while recording the excess heat capacity of the sample cell relative to the reference cell. Each thermogram was analyzed to provide the melting temperature (Tm) of the protein.
The higher the temperature shift generally, the higher the affinity.

T1 sequence (Q8NBP7 153-692): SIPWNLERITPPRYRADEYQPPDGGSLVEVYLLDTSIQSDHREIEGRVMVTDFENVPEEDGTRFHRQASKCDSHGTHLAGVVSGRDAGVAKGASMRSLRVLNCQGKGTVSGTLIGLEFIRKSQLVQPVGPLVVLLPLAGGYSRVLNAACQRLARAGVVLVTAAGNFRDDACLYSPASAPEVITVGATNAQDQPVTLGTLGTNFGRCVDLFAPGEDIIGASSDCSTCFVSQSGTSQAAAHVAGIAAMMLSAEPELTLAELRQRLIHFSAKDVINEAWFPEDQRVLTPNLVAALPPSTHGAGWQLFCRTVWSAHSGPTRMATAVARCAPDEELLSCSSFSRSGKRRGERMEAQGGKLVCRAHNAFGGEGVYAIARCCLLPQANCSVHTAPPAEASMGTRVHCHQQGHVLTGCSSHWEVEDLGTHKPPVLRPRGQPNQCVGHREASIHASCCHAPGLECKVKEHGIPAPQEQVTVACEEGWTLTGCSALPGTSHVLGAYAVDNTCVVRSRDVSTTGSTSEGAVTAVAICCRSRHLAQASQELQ

## Cn1nccc1NC(=O)c1ccc(Oc2cc3c(cc2OCC2CCCCO2)CCN[C@]3(C)CC(=O)Nc2nccs2)cc1F (stereo partly drawn) [Example 73, 2-fluoro-4-(((1R)-1-methyl-1-(2-oxo-2-(thiazol-2-ylamino)ethyl)-6-((tetrahydro-2H-pyran-2-yl)methoxy)-1,2,3,4-tetrahydroisoquinolin-7-yl)oxy)-N-(1-methyl-1H-pyrazol-5-yl)benzamide]
PCSK9 [1]
  IC50: 632 nM
PCSK9 [2]
  ΔTm at 300 µM: 6.66 °C

## COc1cc2c3cc1Oc1ccc(C(=O)O)c(c1)OCCCCCCc1csc(n1)NC(=O)C[C@@]3(C)NCC2 [Example 1, (Z)-36-methoxy-31-methyl-5-oxo-31,32,33,34-tetrahydro-2,14-dioxa-6-aza-7(2,4)-thiazola-3(7,1)-isoquinolina-1(1,3)-benzenacyclotetradecaphane-14-carboxylic acid]
PCSK9 [1]
  IC50: 3670 nM
PCSK9 [2]
  ΔTm at 300 µM: 4.29 °C

## COCCOCc1cn(CCOc2cc3c(cc2Oc2ccc(C(=O)O)c(F)c2)[C@@](C)(CC(=O)Nc2nccs2)NCC3)nn1 [Example 41, (R)-2-fluoro-4-((6-(2-(4-((2-methoxyethoxy)methyl)-1H-1,2,3-triazol-1-yl)ethoxy)-1-methyl-1-(2-oxo-2-(thiazol-2-ylamino)ethyl)-1,2,3,4-tetrahydroisoquinolin-7-yl)oxy)benzoic acid]
PCSK9 [1]
  IC50: 354 nM
PCSK9 [2]
  ΔTm at 300 µM: 7.18 °C

## C[C@]1(CC(=O)Nc2nccs2)NCCc2cc(OCC3CCCCO3)c(Oc3cccc(F)c3)cc21 (stereo partly drawn) [Example 79, 2-((1R)-7-(3-fluorophenoxy)-1-methyl-6-((tetrahydro-2H-pyran-2-yl)methoxy)-1,2,3,4-tetrahydroisoquinolin-1-yl)-N-(thiazol-2-yl)acetamide]
PCSK9 [1]
  IC50: 823 nM
PCSK9 [2]
  ΔTm at 300 µM: 6.76 °C

## C[C@]1(CC(=O)Nc2nccs2)NCCc2cc(OCC3CCCCO3)c(Oc3ccc(C(=O)O)c(F)c3)cc21 (single isomer, unassigned) [Example 70, 2-fluoro-4-(((1R)-1-methyl-1-(2-oxo-2-(thiazol-2-ylamino)ethyl)-6-(((R or S)-tetrahydro-2H-pyran-2-yl)methoxy)-1,2,3,4-tetrahydroisoquinolin-7-yl)oxy)benzoic acid]
PCSK9 [1]
  IC50: 551 nM
PCSK9 [2]
  ΔTm at 300 µM: 7.98 °C

## C[C@]1(CC(=O)Nc2nccs2)NCCc2cc(OCc3ccccn3)c(Oc3ccc(C(=O)O)c(F)c3)cc21 [Example 65, (R)-2-fluoro-4-((1-methyl-1-(2-oxo-2-(thiazol-2-ylamino)ethyl)-6-(pyridin-2-ylmethoxy)-1,2,3,4-tetrahydroisoquinolin-7-yl)oxy)benzoic acid]
PCSK9 [1]
  IC50: 299 nM
PCSK9 [2]
  ΔTm at 300 µM: 7.31 °C

## C[C@]1(CC(=O)Nc2nccs2)NCCc2cc(OCCn3cc(CN4CCNC4=O)nn3)c(Oc3ccc(C(=O)O)c(F)c3)cc21 [Example 42, (R)-2-fluoro-4-((1-methyl-1-(2-oxo-2-(thiazol-2-ylamino)ethyl)-6-(2-(4-((2-oxoimidazolidin-1-yl)methyl)-1H-1,2,3-triazol-1-yl)ethoxy)-1,2,3,4-tetrahydroisoquinolin-7-yl)oxy)benzoic acid]
PCSK9 [1]
  IC50: 389 nM
PCSK9 [2]
  ΔTm at 300 µM: 5.97 °C

## CC(=O)NCc1cn(CCOc2cc3c(cc2Oc2ccc(C(=O)O)c(F)c2)[C@@](C)(CC(=O)Nc2nccs2)NCC3)nn1 [Example 46]
PCSK9 [1]
  IC50: 602 nM
PCSK9 [2]
  ΔTm at 300 µM: 6.48 °C

## COc1cccc(NC(=O)C[C@@]2(C)NCCc3cc(OCC4CCCCO4)c(Oc4ccc(-c5ccc(C(=O)O)cc5)c(F)c4)cc32)n1 (stereo partly drawn) [Example 90, 2′-fluoro-4′-(((1R)-1-(2-((6-methoxypyridin-2-yl)amino)-2-oxoethyl)-1-methyl-6-((tetrahydro-2H-pyran-2-yl)methoxy)-1,2,3,4-tetrahydroisoquinolin-7-yl)oxy)-[1,1′-biphenyl]-4-carboxylic acid]
PCSK9 [1]
  IC50: 109 nM
PCSK9 [2]
  ΔTm at 300 µM: 8.59 °C

## C[C@]1(CC(=O)Nc2nccs2)NCCc2cc(OCC3CCCO3)c(Oc3ccc(-c4ccc(C(=O)O)cc4)c(F)c3)cc21 (some centres unmarked) [Example 13]
PCSK9 [1]
  IC50: 99.3 nM
PCSK9 [2]
  ΔTm at 300 µM: 8.4 °C

## Cc1cn(-c2ccc(-c3cn(CCOc4cc5c(cc4Oc4ccc(C(=O)O)c(F)c4)[C@@](C)(CC(=O)Nc4nccs4)NCC5)nn3)cc2C)cn1 [Example 40, (R)-2-fluoro-4-((1-methyl-6-(2-(4-(3-methyl-4-(4-methyl-1H-imidazol-1-yl)phenyl)-1H-1,2,3-triazol-1-yl)ethoxy)-1-(2-oxo-2-(thiazol-2-ylamino)ethyl)-1,2,3,4-tetrahydroisoquinolin-7-yl)oxy)benzoic acid]
PCSK9 [1]
  IC50: 302 nM
PCSK9 [2]
  ΔTm at 300 µM: 6.75 °C

## COc1cc2c(cc1Oc1ccc(-c3ccc(C(=O)O)cc3)cc1)[C@@](C)(CC(=O)Nc1nccs1)NCC2 [Example 26, (R)-4′-((6-methoxy-1-methyl-1-(2-oxo-2-(thiazol-2-ylamino)ethyl)-1,2,3,4-tetrahydroisoquinolin-7-yl)oxy)-[1,1′-biphenyl]-4-carboxylic acid]
PCSK9 [1]
  IC50: 386 nM
PCSK9 [2]
  ΔTm at 300 µM: 5.75 °C

## COC(=O)c1ccc2cc1OCCCCCc1csc(n1)NC(=O)C[C@@]1(C)NCCc3cc(OC)c(cc31)O2 [Example 3, methyl (R,Z)-36-methoxy-31-methyl-5-oxo-31,32,33,34-tetrahydro-2,13-dioxa-6-aza-7(2,4)-thiazola-3(7,1)-isoquinolina-1(1,3)-benzenacyclotridecaphane-14-carboxylate]
PCSK9 [1]
  IC50: 1250 nM
PCSK9 [2]
  ΔTm at 300 µM: 4.92 °C

## COc1cc2c(cc1Oc1ccc(-c3c[nH]c4c(C(=O)O)cccc34)c(F)c1)[C@@](C)(CC(=O)Nc1nccs1)NCC2 [Example 21, (R)-3-(2-fluoro-4-((6-methoxy-1-methyl-1-(2-oxo-2-(thiazol-2-ylamino)ethyl)-1,2,3,4-tetrahydroisoquinolin-7-yl)oxy)phenyl)-1H-indole-7-carboxylic acid]
PCSK9 [1]
  IC50: 200 nM
PCSK9 [2]
  ΔTm at 300 µM: 6.58 °C

## C[C@]1(CC(=O)Nc2nccs2)NCCc2cc(OCc3ccccn3)c(Oc3ccc(-c4ccc(C(=O)O)cc4)c(F)c3)cc21 [Example 18, (R)-2′-fluoro-4′-((1-methyl-1-(2-oxo-2-(thiazol-2-ylamino)ethyl)-6-(pyridin-2-ylmethoxy)-1,2,3,4-tetrahydroisoquinolin-7-yl)oxy)-[1,1′-biphenyl]-4-carboxylic acid]
PCSK9 [1]
  IC50: 94.3 nM
PCSK9 [2]
  ΔTm at 300 µM: 7.62 °C

## Cn1nccc1NC(=O)c1ccc(Oc2cc3c(cc2OCC2CCCCO2)CCN[C@]3(C)CC(=O)Nc2nccs2)cc1F (single isomer, unassigned) [Example 77, 2-fluoro-4-(((R)-1-methyl-1-(2-oxo-2-(thiazol-2-ylamino)ethyl)-6-(((R or S)-tetrahydro-2H-pyran-2-yl)methoxy)-1,2,3,4-tetrahydroisoquinolin-7-yl)oxy)-N-(1-methyl-1H-pyrazol-5-yl)benzamide]
PCSK9 [1]
  IC50: 591 nM
PCSK9 [2]
  ΔTm at 300 µM: 6.67 °C

## C[C@]1(CC(=O)Nc2nccs2)NCCc2cc(OCc3ncccn3)c(Oc3ccc(C(=O)O)c(F)c3)cc21 [Example 68, (R)-2-fluoro-4-((1-methyl-1-(2-oxo-2-{thiazol-2-ylamino)ethyl)-6-(pyrimidin-2-ylmethoxy)-1,2,3,4-tetrahydroisoquinolin-7-yl)oxy)benzoic acid]
PCSK9 [1]
  IC50: 477 nM
PCSK9 [2]
  ΔTm at 300 µM: 7.56 °C

## COc1cc2c(cc1Oc1ccc(-c3ccc(CCC(=O)O)cc3)c(F)c1)[C@@](C)(CC(=O)Nc1nccs1)NCC2 [Example 32, (R)-3-(2′-fluoro-4′-((6-methoxy-1-methyl-1-(2-oxo-2-(thiazol-2-ylamino)ethyl)-1,2,3,4-tetrahydroisoquinolin-7-yl)oxy)-[1,1′-biphenyl]-4-yl)propanoic acid]
PCSK9 [1]
  IC50: 532 nM
PCSK9 [2]
  ΔTm at 300 µM: 6.18 °C

## C[C@]1(CC(=O)Nc2nccs2)NCCc2cc(OCCn3cc(C(O)C(N)C(=O)O)nn3)c(Oc3ccc(C(=O)O)c(F)c3)cc21 (stereo partly drawn) [Example 53, 4-(((1R)-6-(2-(4-(2-amino-2-carboxy-1-hydroxyethyl)-1H-1,2,3-triazol-1-yl)ethoxy)-1-methyl-1-(2-oxo-2-(thiazol-2-ylamino)ethyl)-1,2,3,4-tetrahydroisoquinolin-7-yl)oxy)-2-fluorobenzoic acid]
PCSK9 [1]
  IC50: 823 nM
PCSK9 [2]
  ΔTm at 300 µM: 6.96 °C

## COC(=O)C1(c2ccc(-c3ccc(Oc4cc5c(cc4OC)CCN[C@]5(C)CC(=O)Nc4nccs4)cn3)cc2)CC1 [Example 15, methyl (R)-1-(4-(5-((6-methoxy-1-methyl-1-(2-oxo-2-(thiazol-2-ylamino)ethyl)-1,2,3,4-tetrahydroisoquinolin-7-yl)oxy)pyridin-2-yl)phenyl)cyclopropane-1-carboxylate]
PCSK9 [1]
  IC50: 3.76 nM
PCSK9 [2]
  ΔTm at 300 µM: 3.31 °C

## C[C@]1(CC(=O)Nc2nccs2)NCCc2cc(OCC(=O)O)c(Oc3ccc(C(=O)O)c(F)c3)cc21 [Example 64, (R)-4-((6-(carboxymethoxy)-1-methyl-1-(2-oxo-2-(thiazol-2-ylamino)ethyl)-1,2,3,4-tetrahydroisoquinolin-7-yl)oxy)-2-fluorobenzoic acid]
PCSK9 [1]
  IC50: 294 nM
PCSK9 [2]
  ΔTm at 300 µM: 7.83 °C

## C[C@]1(CC(=O)Nc2nccs2)NCCc2cc(OCc3ncccc3F)c(Oc3cccc(F)c3)cc21 [Example 84, (R)-2-(7-(3-fluorophenoxy)-6-((3-fluoropyridin-2-yl)methoxy)-1-methyl-1,2,3,4-tetrahydroisoquinolin-1-yl)-N-(thiazol-2-yl)acetamide]
PCSK9 [1]
  IC50: 943 nM
PCSK9 [2]
  ΔTm at 300 µM: 6.32 °C
